# Test results: patent US9034862B2, “Compositions and methods for the treatment of cancer” (priority 2011, dated 2015)
# Experiments:
# [1] = test system: pGLuc plasmid; experiment: Platination of pGLuc plasmid; type: biochemical
# Method: The resulting mixtures were dialyzed (molecular weight cut-off 3.5 kDa) against ddH2O overnight at 4° C. with five changes of ddH2O. The rb values (bound Pt/nucleotide) were determined by UV/Vis and atomic absorption spectroscopy.
# In one embodiment, the ratio of bound platinum per plasmid was determined by measuring the Pt concentration by atomic absorption spectroscopy and the DNA concentration by UV/Vis spectroscopy.
# [2] = equimolar N-AcMet, 37° C.
# Method: NMR spectra were collected on a Varian 500 spectrometer equipped with a triple-resonance broadband inverse probe and a variable temperature unit. The 1-D ^1H NMR kinetic studies were performed in duplicate as a standard time-arrayed experiment using a variable delayed list. Incremented 1-D spectra were processed in exactly the same way and signals of aromatic amine ligands from platinum compounds were integrated. The relative concentrations of the platinum compound at each time point were calculated from peak integrals. […] Reactions of platinum compounds with N-AcMet were performed in NMR tubes containing 2 mM of the Pt complex and 2 mM (1 equiv) of N-AcMet in 10 mM PBS buffer, D2O, pH*7.4 at 37° C. […] Deuterated 3-(trimethylsilyl)propionic acid sodium salt (TMS-PFASS) was used as an internal standard. The pH* values are the measured pH values without correction for the effect of deuterium on the electrode.
# [3] = test system: normal lung fibroblast MRC5; experiment: MTT assay, MRC5; type: cell-based, human
# Method: (§1) Human colon carcinoma HT29, human breast carcinoma MCF7, human bone sarcoma U2OS, human prostate carcinoma PC3, and human cervix carcinoma HeLa cells were obtained from the ATCC. A2780/CP70 cisplatin-resistant human ovarian cancer cells were kindly provided by Dr. Stephen B. Howell (Moores UCSD Cancer Center) and the human lung carcinoma cell lines A549 and normal lung fibroblast MRC5 by David E. Root (Whitehead Institute for Biomedical Research). Cells were incubated at 37° C. in 5% CO2 and grown in RPMI (HT29, A2780/CP70, and PC3) or DMEM (A549, MRC5, HeLa, MCF7, and U2OS) medium supplemented with 10% fetal bovine serum and 1% penicillin/streptomycin. Cells were passed every 3 to 4 days and restarted from a frozen stock upon reaching pass number 20.
# (§2) Solutions of the platinum compounds were freshly prepared in sterile PBS before use and their concentrations quantitated by atomic absorption spectroscopy. […] The cells were then treated with 20 μL of 3-(4,5-dimethylthiazol-2-yl)-2,5-diphenyltetrazolium bromide (MTT) (5 mg/mL in PBS) and incubated for 4 h. The medium was removed, 100 μL of DMSO was added to the cells, and the absorbance of the purple formazan was recorded at 560 nm using a BioTek Synergy HT multi-detection microplate plate reader. Each condition was performed in triplicate and three independent experiments were carried out for each cell line.
# [4] = test system: GLuc expression in HT29 cells; experiment: Transcription assay, globally platinated pGLuc, HT29; type: cell-based, human
# Method: (§3) Transfection of transcription probes into A549 and HT29 cells with the pGLuc plasmid was carried out using liposomal transfecting agents. Determination of expression levels was tested by Luciferase assays monitored by a luminometer (J. Am. Chem. Soc. 2010, 132, 7429-7435). A549 cells were plated in 96-well plates at 2,000 cells/well and HT29 cells were plated in 96-well plates at 6,000 cells/well. After 48 h incubation (at ˜30% confluence), cells were transfected with 50 ng of platinated plasmids in 25 μL Opti-MEM and 0.125 μL Lipofectamine 2000, and subsequently 50 μL of antibiotics-free DMEM supplemented with 10% FBS. After 2 h, the cells were washed with medium and 100 μL of fresh medium was added. The experiment was carried out in quadruplicate.
# (§4) GLuc activity was monitored using a luminescence plate reader (Synergy 2, BioTek, Winooski, Vt., USA). A 10 μL volume of medium at different time points (12, 24, 36, 48, 60 h) was transferred into opaque white 96-well plates, and 25 μL of GLuc assay solution (10 μM colelenterazine (NanoLight Technologies, Pinetop, Ariz., USA) in 2.5 mM acidified methanol (100 mM HCl), buffer (10 mM Tris-HCl pH 7.8, 1 mM EDTA, 0.6 M NaCl)) was added by the automatic injector of the instrument.
# (§5) In another embodiment, A549 or HT29 cells were transfected using the platinated transcription probes, and transcription levels were investigated by determining GLuc expression as measured by […] following addition of coelenterazine as a substrate for the exported enzyme. The emission intensities were normalized against unplatinated plasmids as a control. Transcription profiles were obtained by plotting normalized levels of GLuc expression against platination levels (Pt/plasmid ratio) at five different time points. […] An increase in D0 value at different time points represents restoration of transcription.
# [5] = test system: human prostate carcinoma PC3; experiment: MTT assay, PC3; type: cell-based
# Method: (§6) Solutions of the platinum compounds were freshly prepared in sterile PBS before use and their concentrations quantitated by atomic absorption spectroscopy. Cells were seeded on a 96-well plate (1200 cells per well for cancer cells and 1800 cells per well for the normal lung fibroblasts) in 100 μL RPMI or DMEM media, and incubated for 24 h. […] The cells were then treated with 20 μL of 3-(4,5-dimethylthiazol-2-yl)-2,5-diphenyltetrazolium bromide (MTT) (5 mg/mL in PBS) and incubated for 4 h. The medium was removed, 100 μL of DMSO was added to the cells, and the absorbance of the purple formazan was recorded at 560 nm using a BioTek Synergy HT multi-detection microplate plate reader. Each condition was performed in triplicate and three independent experiments were carried out for each cell line.
# (§7) Human prostate carcinoma (PC3) and human cervix carcinoma (HeLa) cells were obtained from the ATCC. The human lung carcinoma cell line A549 was kindly provided by David E. Root (Whitehead Institute for Biomedical Research). Cells were incubated at 37° C. in 5% CO2 and grown in RPMI (PC3) or DMEM (A549 and HeLa) medium supplemented with 10% fetal bovine serum and 1% penicillin/streptomycin. Cells were passaged every 3 to 4 days and restarted from the frozen stock upon reaching passage number 20.
# (§8) Solutions of the platinum agents were freshly prepared in sterile PBS before use and the platinum content was quantitated by AAS. Cells were seeded on 96 well plates (1200 cells per well) in 100 μL RPMI or DMEM media\ and incubated for 24 hours. […] The cells were then treated with 20 μL of 3-(4,5-dimethylthiazol-2-yl)-2,5-diphenyltetrazolium bromide (MTT) (5 mg/mL in PBS) and incubated for 4 h. The medium was removed, 100 μL of DMSO were added to the cells, and the absorbance of the purple formazan was recorded at 570 nm using a BioTek Synergy HT multi-detection microplate plate reader. For each cell line, three independent experiments were carried out in triplicate.
# [6] = test system: 60 different human cancer cell lines; experiment: NCI-60 DTP Human Tumor Cell Line Screen; conditions: single dose of 10 μM
# [7] = test system: human cervix carcinoma HeLa cells; experiment: MTT assay, HeLa; type: cell-based
# Method: as §6, §7, §8
# [8] = test system: GLuc expression in A549 cells; experiment: Transcription assay, globally platinated pGLuc, A549; type: cell-based, human; conditions: for transcription level (normalized against unplatinated plasmid): Pt/DNA ratio of […] for phenanthriplatin
# Method: as §3, §4, §5
# [9] = test system: human bone sarcoma U2OS; experiment: MTT assay, U2OS; type: cell-based
# Method: as §1, §2
# [10] = test system: calf thymus DNA; experiment: Ethidium bromide DNA-binding competition, Scatchard analysis; set-up: key: competitive (type A); non-competitive (type D); both (type B); No inhibition of ethidium binding is labeled as type C
# From the text: Using this approach, it is possible to determine whether the inhibition of ethidium binding is competitive (type A), non-competitive (type D), or both (type B). No inhibition of ethidium binding is labeled as type C.
# [11] = test system: human breast carcinoma MCF7; experiment: MTT assay, MCF7; type: cell-based
# Method: as §1, §2
substance,measurement,setting,value
cis-[Pt(NH3)2(phenanthridine)Cl]NO3 [phenanthriplatin],Pt per plasmid,"[1]; rf 0.0008, 16 h at 37° C.",12.12 Pt per plasmid
same,rb (bound Pt/nucleotide),"[1]; rf 0.0008, 16 h at 37° C.",0.0015
same,Pt per plasmid,"[1]; rf 0.0019, 16 h at 37° C.",15.42 Pt per plasmid
same,rb (bound Pt/nucleotide),"[1]; rf 0.0019, 16 h at 37° C.",0.0019
same,Pt per plasmid,"[1]; rf 0.0029, 16 h at 37° C.",24.28 Pt per plasmid
same,rb (bound Pt/nucleotide),"[1]; rf 0.0029, 16 h at 37° C.",0.0030
same,Pt per plasmid,"[1]; rf 0.0060, 16 h at 37° C.",42.80 Pt per plasmid
same,rb (bound Pt/nucleotide),"[1]; rf 0.0060, 16 h at 37° C.",0.0053
same,"second-order rate constant, reaction with N-AcMet",[2],0.034 mM⁻¹ h⁻¹
same,IC50,"[3]; Table 4, MRC5 normal lung fibroblast, 72 h incubation",860 ± 60 nM
same,IC50,"[3]; Table 5, MRC5, 72-h incubation",860 ± 60 nM
same,D0 (Pt lesions per plasmid required to reduce transcription levels to 37% of control),"[4]; HT29, 12 h after transfection",18.9 Pt/plasmid
same,D0 (Pt lesions per plasmid required to reduce transcription levels to 37% of control),"[4]; HT29, 48 h after transfection",23.5 Pt/plasmid
same,transcription level (normalized against unplatinated plasmid),"[4]; HT29, 60 h, Pt/DNA ratio of […] for phenanthriplatin",37.6%
same,D0 (Pt lesions per plasmid required to reduce transcription levels to 37% of control),"[4]; HT29, 60 h after transfection",25.0 Pt/plasmid
same,IC50,"[5]; Table 3, PC3 Prostate, 72-h incubation",740 ± 40 nM
same,IC50,"[5]; Table 11 (Example 3), PC3 Prostate, 72 h",600 ± 250 nM
same,growth inhibition of the 60 cell lines,[6],significant growth inhibition
same,IC50,"[7]; Table 3, HeLa Cervix, 72-h incubation",300 ± 20 nM
same,IC50,"[7]; Table 5, HeLa, 72-h incubation",300 ± 20 nM
same,IC50,"[7]; Table 11 (Example 3), HeLa Cervix, 72 h",210 ± 35 nM
same,IC50,"[7]; Table 14, HeLa, MTT assay",370 ± 40 nM
same,transcription level (normalized against unplatinated plasmid),"[8]; A549, 12 h",19.5%
same,D0 (Pt lesions per plasmid required to reduce transcription levels to 37% of control),"[8]; A549, 12 h after transfection",14.2 Pt/plasmid
same,D0 (Pt lesions per plasmid required to reduce transcription levels to 37% of control),"[8]; A549, 24 h after transfection",17.3 Pt/plasmid
same,D0 (Pt lesions per plasmid required to reduce transcription levels to 37% of control),"[8]; A549, 36 h after transfection",22.2 Pt/plasmid
same,D0 (Pt lesions per plasmid required to reduce transcription levels to 37% of control),"[8]; A549, 48 h after transfection",31.6 Pt/plasmid
same,transcription level (normalized against unplatinated plasmid),"[8]; A549, 60 h",51.1%
same,D0 (Pt lesions per plasmid required to reduce transcription levels to 37% of control),"[8]; A549, 60 h after transfection",39.8 Pt/plasmid
same,IC50,"[9]; Table 3, U2OS Bone, 72-h incubation",590 ± 40 nM
same,IC50,"[9]; Table 5, U2OS, 72-h incubation",590 ± 40 nM
same,IC50,"[9]; Table 14, U2OS, MTT assay",1050 ± 20 nM
same,type of inhibition of ethidium binding (Scatchard),[10]; 12-h incubation period,type D
same,type of inhibition of ethidium binding (Scatchard),[10]; 1 min incubation period,type C
same,IC50,"[11]; Table 3, MCF7 Breast, 72-h incubation",940 ± 90 nM
same,IC50,"[11]; Table 14, MCF7, MTT assay",1140 ± 20 nM
